Cytotoxicity data for 98 molecules are collected here from ChEMBL document CHEMBL3507680, “University of Dundee, Gates Library screen for HepG2 cell viability”.

The data set can be described thus: Human HepG2 cell viability assay in 384 well format. It counts as toxicity, cell-based. Set-up: dose 125 nL, time 70.5 hour; cytotoxicity at 70.5 h: concentration not given beside the values. The settings on record: HepG2 cells, read-out: Inhibition.
For the molecule `CCc1nc(C)c([C@H]2CN(C)C[C@@H]2C(=O)NCCc2cnccn2)[nH]1`, the cytotoxicity at 70.5 h is -5.77%. Then `Cc1occc1C(=O)N1CCC2(CC1)CC(OCc1ccccn1)CO2` (stereo not drawn), with 11.9%.

With `CCCN1CCCC2(CCN(c3nc(C)nc4ccsc34)C2)C1=O` (stereo not drawn), the cytotoxicity at 70.5 h was -3.49%. Turning to `O=C(CC1CC1)N1C[C@H]2CN(CC3CC3)C(=O)[C@H]2C1`, the cytotoxicity at 70.5 h was -1.89%. Regarding `COc1ncccc1CN1C[C@@H]2OCCN(CCN(C)C)[C@@H]2C1`, the cytotoxicity at 70.5 h is -3.67%. To `Cc1nn(C)c2c(N3CCN(C(=O)C4CC4)CC3)ncnc12` belongs 16.2%; to `Cn1cc(C2CCCN2C(=O)CCCc2cccs2)cn1` (stereo not drawn), -12.4%.

As for `CC(C)(C)NC(=O)CNC(=O)CCc1ccccc1Br`, the cytotoxicity at 70.5 h was -8.13%. Then `COCCN1C[C@@H]2CN(Cc3ccc(F)cc3)C[C@@H]2C1=O`, with -9.05%.

As for `COCCN(C)Cc1ccc(OC)c(OC(F)F)c1`, the cytotoxicity at 70.5 h is -5.27%. To `CN(C)CCN1CCC2(CCN(C(=O)c3cccnc3)CC2)C1=O` belongs -4.08%. As to `Cc1nc(-c2cc(C(=O)NC(C)(C(=O)O)C(C)C)co2)cs1` (stereo not drawn), the cytotoxicity at 70.5 h is -7.3%.

Consider `Cc1nc(CN2CCCC(N(C)c3cnc4ccccc4n3)C2)no1` (stereo not drawn), for which the cytotoxicity at 70.5 h was 20.5%.

Regarding `COCc1noc(Cc2c(C)nn(C)c2C)n1`, the cytotoxicity at 70.5 h was -2.81%. With `CN(C)C(=O)COC[C@]12COC[C@H]1CN(C1CCCC1)C2`, the cytotoxicity at 70.5 h is -8.08%. Consider `CN1CCN(C[C@@H]2OC[C@H]3CN(CCc4ccccc4)CC[C@H]32)CC1`, for which the cytotoxicity at 70.5 h was -0.223%. Then `Cc1cnn(CCCn2ncc(N3CCC(CN)C3)cc2=O)c1` (stereo not drawn), with 9.78%.

For `CC(C)NC(=O)N1CCC2(CC(=O)N(c3cccc(C#N)c3)C2)C1` (stereo not drawn), the cytotoxicity at 70.5 h turned out to be 2.44%. To `CC(C)CCNC(=O)c1sccc1N(C)S(=O)(=O)c1ccccc1` belongs 33.2%.

For the molecule `CCOC1CCCN(C(=O)c2cnc3c(cnn3C3CCCC3)c2)C1` (stereo not drawn), the cytotoxicity at 70.5 h is -18%.

For `Cc1nc(CN(C)c2nc3c(cnn3C(C)(C)C)c(=O)[nH]2)cs1`, the cytotoxicity at 70.5 h is 8.98%.

In the case of `CC(C)c1nc2cc(NC(=O)Cn3ccccc3=O)ccc2o1`, the cytotoxicity at 70.5 h is -3.88%.

For the molecule `COCc1noc(-c2ccc(N(C)Cc3c(C)n[nH]c3C)nc2)n1`, the cytotoxicity at 70.5 h was -5.36%. To `O=C(Cc1csc(-c2ccsc2)n1)N1CCN(c2cnccn2)CC1` belongs -10.1%.

For the molecule `Cc1ccccc1CN1CC[C@H]2C[C@H](C(=O)N(C)C)O[C@H]2C1`, the cytotoxicity at 70.5 h is -12.7%. Regarding `Cc1nn(C)c(C)c1C(C(=O)O)N1CCc2ccccc2C1` (stereo not drawn), the cytotoxicity at 70.5 h came out at 0.959%.

In the case of `CNC(=O)[C@@H]1C[C@H]2CN(C(=O)c3ccco3)C[C@H]2N1C`, the cytotoxicity at 70.5 h was 2.59%.

Regarding `CCN1CCC2(C=C(C(=O)NC3CC3)c3ccccc32)CC1`, the cytotoxicity at 70.5 h was -3.64%. Then `Cc1ccc(C(=O)N2CCCCC2CNC(N)=O)s1` (stereo not drawn), with -6.25%; and `COc1cnc(C2(O)CCN(C(=O)c3ccncc3)CC2)c(OC)n1`, with -4.69%; and `Cc1ccccc1CN1CCN(C(=O)c2cnc(C3CC3)[nH]c2=O)CC1`, with 7.92%. Regarding `Cc1nc(N2CCN(C(=O)C3CC3)CC2)c2c(n1)c(C)nn2C`, the cytotoxicity at 70.5 h was 0.516%. To `O=C(NCCCn1cccn1)C1(c2ccc(F)cc2)CC1` belongs -2.75%; to `CC(=O)N1CCN(C(=O)c2cc(C(C)C)no2)[C@H]2CS(=O)(=O)C[C@H]21`, -3.64%. Take `CC(=O)N1C[C@H]2CNC[C@@]2(C(=O)NCCOc2ccccc2F)C1`: the cytotoxicity at 70.5 h is 0.818%. In the case of `Cc1noc(C)c1CN(C)C(=O)c1cnc(C2CC2)nc1O`, the cytotoxicity at 70.5 h was found to be 8.69%. Consider `NC(=O)N1CCC2(CC1)CN(Cc1cccnc1)C(=O)CO2`, for which the cytotoxicity at 70.5 h is -7.6%.

As to `O=C(Cn1cccnc1=O)NC(Cc1ccsc1)c1ccccn1` (stereo not drawn), the cytotoxicity at 70.5 h was -11.2%. To `COC(=O)[C@H](C)NC(=O)c1nc(C2CC2)n(-c2ccccc2Cl)n1` belongs -11.3%; to `O=C(O)c1nnn(-c2ccccc2F)c1-c1ccncc1`, 5.16%. Then `CC(C)C1CN(Cc2cnc(N(C)C)nc2)CCCN1CC1CC1` (stereo not drawn), with -10%. Then `CNc1cncc(C2CCCN2C(=O)c2ccc3oc(=O)n(C)c3c2)n1` (stereo not drawn), with 17.9%; and `COc1cnc(CN2CC(=O)N(c3ccc(C)cc3)CC2C)cc1O` (stereo not drawn), with -5.7%; and `COc1cc(C(C)NCc2ncccc2C)ccc1SC(F)F` (stereo not drawn), with 52.4%. Regarding `CC1CCN(c2nccn3c(=O)[nH]nc23)CC1`, the cytotoxicity at 70.5 h is -3.79%. To `Cc1cnn(C2CCCN(C(=O)Cc3cn4ccccc4n3)C2)c1` (stereo not drawn) belongs -12.4%; to `CC(=O)N1CCN(Cc2ccncc2)CC2(CC(=O)N(C)C2)C1` (stereo not drawn), -7.88%. Then `CC(=O)N1CCC(c2cnc(NC3CCOCC3)cn2)CC1`, with -6.84%; and `Cn1cc(N2CC3(COCCN(Cc4nccs4)C3)OCC2=O)cn1` (stereo not drawn), with -9.93%; and `Cc1ccc(CNC(=O)c2nc3c(o2)CN(c2ncccn2)C3)o1`, with -2.56%.

In the case of `c1csc(CN2C[C@@H]3COC[C@]3(COCc3ccncc3)C2)c1`, the cytotoxicity at 70.5 h is 28.4%.

As to `CC(O)CNCc1ccccc1C(F)(F)F` (stereo not drawn), the cytotoxicity at 70.5 h is -5.36%.

Turning to `CC(NC(=O)COc1ccccc1I)C1CC1` (stereo not drawn), the cytotoxicity at 70.5 h is -1.97%. To `CC1CCN(c2cncc(CCC3CCCN3)n2)CC1` (stereo not drawn) belongs -8.58%; to `NC(=O)C(NC(=O)COC1CCCC1)c1ccccc1` (stereo not drawn), -6.85%; to `Cc1nn(C)c(N2CCOCC2)c1CNCC1CCN(C2CC2)C1` (stereo not drawn), 15.8%.

Turning to `Cn1cccc1C(=O)N1C[C@H]2CN(Cc3cccs3)C[C@H]2C1`, the cytotoxicity at 70.5 h is -4.47%. To `Cc1cc(CN(C)C(=O)NCc2ccnc(OC3CCCC3)c2)no1` belongs -3.22%. Then `Fc1cccnc1Oc1cc(F)c(CN2CCCC2)c(F)c1`, with -13.4%; and `Cc1cc(C)n(CCC(=O)N2CCCC(n3cncn3)C2)n1` (stereo not drawn), with 25.8%. Turning to `Cn1ccc(C(=O)NC2CCC23CCN(Cc2ccc(F)cc2)CC3)c1` (stereo not drawn), the cytotoxicity at 70.5 h was -0.822%. `N#Cc1cnn(C(=O)CCCOc2ccccc2Cl)c1N`: the cytotoxicity at 70.5 h was 9.75%. To `COc1ccc(Cn2c(=O)n(C)c(=O)c3sccc32)cc1` belongs 3.39%; to `CC(C)Cc1nc(OCC(=O)O)c(C#N)c2c1CCCC2`, -7.68%; to `CNc1cc(C)nc(N2C[C@H](C3CC3)[C@@H](N)C2)n1`, 6.57%. As to `CN(CCCC1CCCC1)C(=O)c1cc(CN2CCC(O)CC2)on1`, the cytotoxicity at 70.5 h turned out to be 10.4%.

Regarding `OCC1CCCN1c1cc(NCCNc2cccnn2)ncn1` (stereo not drawn), the cytotoxicity at 70.5 h was -6.7%. Then `CCC(C)(CNC(=O)Nc1nncs1)N1CCOCC1` (stereo not drawn), with -13.4%; and `O=C(c1cncc(N2CCC(O)(CO)CC2)n1)N1CCCC1`, with -9.52%.

In the case of `COc1c(C)cnc(CN(C)C2CCN(C3CCOCC3)CC2)c1C`, the cytotoxicity at 70.5 h is -0.744%.

For the molecule `CCNC(=O)C1CCN(c2cc(-c3ccccc3)nc3cc(C)nn23)C1` (stereo not drawn), the cytotoxicity at 70.5 h was -2.31%. In the case of `CCOc1c(CNCCCn2ccnc2)cc(Cl)cc1OC`, the cytotoxicity at 70.5 h is -5.3%. Then `O=C1CC(c2ccc(C(=O)O)cc2)c2ncn(-c3ccc(Cl)cc3)c2N1` (stereo not drawn), with -13%; and `O=C(O)[C@@H]1CN(C(=O)CN2CCCCCC2)C[C@H]1c1ccccc1`, with 1.47%. In the case of `CCN1CC2(CC1=O)CN(Cc1cnn(C)c1)CCN(C(=O)N(C)C)C2` (stereo not drawn), the cytotoxicity at 70.5 h amounted to 9.62%.

As for `CN(C)c1ncc(NC(=O)N2CCC(CN3CCCC3)C2)cn1` (stereo not drawn), the cytotoxicity at 70.5 h amounted to 0.1%. Consider `Cc1nc2ccccc2c(=O)n1CCC(=O)N1CCCC1`, for which the cytotoxicity at 70.5 h was -6.75%. To `CCc1ccc(C(=O)Nc2ccc(CC3CC(=O)NC3=O)cc2)s1` (stereo not drawn) belongs -4%. Regarding `Cc1cc(N2CCC(N(C)C(=O)c3ccccc3F)CC2)nc(C)n1`, the cytotoxicity at 70.5 h worked out at 15.8%. To `CCc1ncc(C(=O)NCCNc2ccncc2)s1` belongs -0.807%. Turning to `CCS(=O)(=O)c1ncc(CN2CCSCC2)n1CCc1ccccc1`, the cytotoxicity at 70.5 h is -11.3%. Consider `CCOCC1CN(S(C)(=O)=O)Cc2cnn(CC3CCOCC3)c21` (stereo not drawn), for which the cytotoxicity at 70.5 h is -0.335%. With `O=C(CCN1CCCCO1)NCc1cn2c(n1)SCC2`, the cytotoxicity at 70.5 h was -0.977%. Then `CN(CCc1cn[nH]c1)C(=O)C(c1ccc(F)cc1)N(C)C` (stereo not drawn), with -9.33%; and `CNc1ccc(Cl)cc1C(=O)N1CCC(Cn2cc(CN)nn2)CC1`, with 1.05%. Then `CN1CCN(C(=O)C2CCCc3[nH]ncc32)CC1` (stereo not drawn), with -1.9%; and `O=C(NC[C@H]1OC[C@@H]2CCN(C3CCOCC3)C[C@@H]21)c1ccncc1`, with -3%. On to `CCOC(=O)N1CCN(c2nc(CCN)nc3sc(C)c(C)c23)CC1`, for which the cytotoxicity at 70.5 h came out at 1.12%. To `COCC1CN(C(=O)c2cccn2C)Cc2c1cnn2CC1CC1` (stereo not drawn) belongs -1.46%; to `COCCN1CCCc2sc(C(=O)Nc3ccc(C)nc3)nc21`, -0.226%. Regarding `Cc1cccc(CN2CCCC(c3nccs3)C2)n1` (stereo not drawn), the cytotoxicity at 70.5 h is -1.28%. To `CN1CCCC1CNC(=O)CCCOc1cccc(F)c1` (stereo not drawn) belongs 5.1%; to `COc1ncc(C)cc1NC(=O)CCc1ccccn1`, 17.6%.

Regarding `CCc1cccc(CC(=O)NC2CCN(C(=O)NC(C)(C)C)CC2)c1`, the cytotoxicity at 70.5 h was 1.52%. `COCC(NC(=O)c1cc(NC(C)=O)ccc1Cl)c1ccccn1` (stereo not drawn): the cytotoxicity at 70.5 h was -5.35%. Then `Cc1nn(COc2cccc(F)c2)c(C)c1NC(=O)C1CC1`, with 2.57%; and `CN1C[C@@H](F)[C@@H](OCc2nc3ccccc3[nH]2)C1`, with -5.45%. Consider `CSc1nnc(CNC(=O)Nc2ccccc2Br)n1C`, for which the cytotoxicity at 70.5 h was -3.94%.
